US11590091B2, “Fixed dose composition of paracetamol: amitriptyline and method for the treatment of mixed cancer pain” (CENTRO DE INVESTIGACIÓN Y DESARROLLO DE MEDICAMENTOS CIDEM, priority 2018, dated 2023)
Read-outs that look alike come from different tables or passages of the source.

Experiments:
[1] = system: licking/biting behavior after injection of 2.5% formalin in the plantar surface of the rat's paw; assay: Formalin test (persistent pain model), licking/biting behavior, with isobolographic analysis; assay type: in vivo, rat (Sprague Dawley); conditions: for percentage of inhibition of phase II (% antinociception) / ED30 for the inhibition of phase II (experimental): single dose; for percentage of inhibition of phase II (% antinociception): 2.5% formalin; for Oral administration ED30: formalin test, dose producing 30% reduction of control response, mean ± SD of the estimate; for ED30 for the inhibition of phase II (experimental): oral, phase II of formalin test, unit not given
From the text: In the present invention referred to the combination paracetamol:amitriptyline, the pharmacodynamic rationality was based on the knowledge of the actions of both drugs on the nociceptive pathways considering the multiple sites and mechanisms operating on specific targets, as well as their adverse effects and pharmacokinetic variables. […] This responds to the need for the use of integral systems in which peripheral activity, spinal transmission, modulating systems and suprasegmental systems of the active global network that leads to the perception of pain can interact (Raffa, R B et al., 2010. J Pain 11: 701-709). The experiments were designed in young rats (8-10 weeks, Sprague Dawley, males, 168-240 g, CENPALAB, Havana, Cuba) and divided into several groups n=6-7 each, which received increasing doses of both drugs independent and combinations, to evaluate the effect as a percentage (%) of antinociception at single doses in the formalin test compared to the vehicle-treated group. This test is considered a standard persistent pain model for the study of animal nociception, widely used (Okuda, K. et al., 2001. Pain 92: 107-15). A biphasic nociceptive behavior has been described in this test, the first phase or nociceptive is interpreted as a consequence of the direct activation of the peripheral endings of the nociceptors by the chemical irritant. While the second, tonic or late phase is interpreted as the result of the acute inflammatory response, as well as the peripheral and central sensitization produced by the sustained activation of C fibers (Coderre, T J et al., 1990. Brain Res. 535: 155-8). This phase mimics the changes in synaptic plasticity that occur during persistent pain that could progress to chronicity, which is why it received the greatest attention in our experiments. The period between the two phases of the response is identified as a phase of latency in which the activity diminishes or practically ceases, this effect being attributed to the participation of the mechanisms of central endogenous pain modulation (Dubuisson, D. and, Dennis, S G 1977. Pain 4: 161-74; Omote, K. et al., 1998. Brain Res. 814: 194-8). The time course of the antinociceptive response to individual drugs and combinations was constructed by mapping the mean time of the licking/biting as a function of the time of each phase. These values were transformed into percentage of antinociception that express the percentage of inhibition of the behavior with respect to the control of the particular phase according to the formula: % antinociception=((x−x1)/x)*100. Where X=average time of licking/bite of the control group treated with vehicle, X1=time of licking/biting of each animal of the experimental group (for phase I licking time in 5 minutes, for phase II average of the time of 15 to 45 minutes per animal). In the case that X1 was greater than X, a value of 0 was assigned to % antinociception. A value close to 0% means that the behavior is similar to that of the control group and a value close to 100% means that there was no nocidefensive behavior (Argelles, C. F. et al., 2002. Anesthesiology 96: 921-5). The antihyperalgesic effect of amitriptyline has been recognized in neural damage conditions. […] One of the proposals to explain these discrepancies has been the ability of amitriptyline to increase serotonergic signaling, which has multiple subtypes of receptors, some low and others with high affinity, with heterogeneous and even opposite actions distributed at different levels of the nociceptive pathways. […] However, 5-HT2A and 5-HT3, 5-HT4 and 5-HT7 localized pre-synaptically facilitate it. […] As a consequence, the most integrated licking/biting behavior was recorded and doses of amitriptyline (0.1, 1, 3, 10 mg/kg, p.o., AMT) were used for the dose-response curve study (FIG. 1). […]

[2] = system: mechanical allodynia in the ipsilateral hindpaw of CCI rats; assay: Sciatic nerve chronic constriction injury (CCI) model, mechanical allodynia (von Frey filaments), with isobolographic analysis; assay type: in vivo, rat (Sprague Dawley); conditions: for MPE, mechanical allodynia: day 14 post-CCI; for ED50: Rattus norvegicus
From the text: (§1) The favorable results at a single dose in phase II of this algesymmetric test provide evidence that allows us to move towards a neuropathic pain model to study the possible combination at repeated doses. […] The CCI model has a high sensitivity (88%) for the prediction of efficacy in controlled clinical trials (Kontinen, V K and Meert, T F 2003. In: Dostrovsky, J O, Carr, D B, Koltzenburg, M. editors. the 10th World Congress on Pain, Seattle: IASP Press, p. 489-98). Once the model was reproduced, the threshold of removal of the injured hindpaw was measured by the stimulation with the von Frey filaments (mechanical allodynia) and by the stimulation with an electronic von Frey (mechanical hypernociception). The measurements were performed under baseline conditions and at 7 days post-CCI (hyperalgesic peak in the model), at which time the experimental groups were conformed (n=6-7 per group) to proceed with the dose-response curve study of amitriptyline. In this way, establish the ED30 or ED50 depending on the % of maximum possible effect (MPE) produced by the drug to reduce each of the sensory symptoms of neuropathic pain reproduced by the model (Jensen, T S and Baron, R. 2003. Pain 102: 1-8). Gabapentin, a common drug in its treatment, was used as a reference. CCI-vehicle group (distilled water 10 mL/kg, p.o.), amitriptyline groups (0.5, 1.5, 3, 10 mg/kg, p.o., AMT), gabapentin group (50 mg/kg, p.o., GBP); Sham CCI Group (distilled water 10 mL/kg, p.o.) The daily supply was given at repeated doses for 7 days until 14 days post-CCI, at which time another evaluation of the variables was performed. […] The experimental groups were formed for the dose-response curve study of paracetamol: CCI-vehicle group (distilled water 10 mL/kg, p.o.), Paracetamol groups (25, 50, 100, 200 mg/kg, p.o., P), Gabapentin group (50 mg/kg, p.o., GBP), CCI Sham Group (distilled water 10 mL/kg, p.o.). These doses of paracetamol have not been associated with liver or kidney damage in rats. […] To execute the dose-response curve mapping, the withdrawal thresholds after the treatments were converted into % of MPE. [Mechanical allodynia: MPE %=(post-treatment threshold−pre-treatment threshold)/(15 g-pre-treatment threshold)×100; Mechanical hypernociception: MPE % (Δ g post-treatment−Δ g pre-treatment)/50−Δ g pre-treatment)×100]. Subsequently, the same design was executed with the four doses of the combination calculated from the theoretical effective dose of each drug, this was calculated for each variable depending on the ED50 or ED30 according to the drug's capacity to obtain 50% or more of MPE that is 100% assumed as the total suppression of mechanical allodynia and mechanical hypernociception induced by CCI. […] In addition, concerning to the hypernociception intensity, the MPE values: 0.5 mg/kg=2.55%, 1.5 mg/kg=16.07% (p<0.05), 3 mg/kg=35.43% (p<0.001), 10 mg/kg=44.95% (p<0.001) vs GBP 50 mg/kg=63.47% (p<0.001), ED30=3.1032 (FIG. 8B). Amitriptyline inhibited both alterations of nociceptive processing but the potency of its effect was in the following order: mechanical allodynia>mechanical hypernociception. In neuropathic pain models there are controversies regarding the observation of the mechanical antiallodynic effect of amitriptyline. […] The result was similar in the model of spared neural injury (SNI), instead it reversed the responses to stimuli induced by chemical irritants induced by ATP and capsaicin, stimuli that are transmitted by the C fibers that express P2X and TRPV1 receptors and that are also involved in the transmission of thermal stimuli.

[3] = system: mechanical hypernociception in the ipsilateral hindpaw of CCI rats; assay: Sciatic nerve chronic constriction injury (CCI) model, mechanical hypernociception (electronic von Frey); assay type: in vivo, rat (Sprague Dawley); conditions: for MPE, intensity of mechanical hypernociception: day 14 post-CCI; for ED30, mechanical hypernociception: oral repeated doses, CCI rats, unit not given
From the text: as §1

[4] = Behavioral safety pharmacological tests (rota-rod, tone, posture, righting reflex, general state); assay type: in vivo, rat (Sprague Dawley); conditions: repeated minor doses (0.5-10 mg/kg p.o.) in the CCI model
Protocol: The rotating rod or rota-rod test was executed. The apparatus consists of a bar with a diameter of 2.5 cm divided into 4 compartments. The bar rotated at a constant speed of 22 rpm and the time it took for the animals to fall from the bar was evaluated. The animals were evaluated 1 h after the supply. The cut-off time used was 60 seconds. In addition, the tone, posture, righting reflex, corneal, vital signs and general state of the animal were explored from 30 minutes to 3 hours post-administration of the drugs separately and the combination. The corneal and tympanic reflex were explored by the tip of a thin paper to stimulate the cornea or auditory canal and the rapid response of opening and closing of the eyes or the mobilization of the ears in normal animals was observed. The evaluation of the posture and the righting reflex was based on the scale of Devor and Zalkind. Scale for posture: 0=normal posture, grooming supported on its hind legs; 1=moderate atony and ataxia, supports its weight, but can not rest on its hind legs; 2=supports its weight, but ataxia is severe; 3=maintains muscle tone, but can not support its weight, only small movements of intention; 4=atony, flaccidity, totally immobilized, no efforts to mobilize.

[5] = system: CCI-induced Wallerian degeneration-related changes in rat sciatic nerve; assay: Histopathological study of sciatic nerve sections (Wallerian degeneration) in CCI rats; conditions: GBP as positive control, 14 days post-CCI
[6] = 100 mg/kg p.o. daily for 7 days
[7] = 200 mg/kg p.o. daily for 7 days
[8] = po, CCI model, dose producing 50% reduction of control response, table values mean ± SD of the estimate, read-out: Oral administration ED50 (antiallodynic, experimental)
[9] = oral repeated doses, CCI rats, unit inferred, read-out: ED50, mechanical allodynia
[10] = 0.5 mg/kg p.o. daily for 7 days
[11] = 1.5 mg/kg p.o. daily for 7 days

SMILES: CC(=O)Nc1ccc(O)cc1 [Paracetamol, paracetamol]
- percentage of inhibition of phase II (% antinociception) ([1]; 50 mg/kg p.o., phase II): 38.08%
- percentage of inhibition of phase II (% antinociception) ([1]; 100 mg/kg p.o., phase II): 65.73%
- percentage of inhibition of phase II (% antinociception) ([1]; 200 mg/kg p.o., phase II): 74.24%
- effect on phase I of the formalin test ([1]; 300 mg/kg p.o. (printed 'the dose higher than 300 mg/kg')): significantly reduced phase I
- percentage of inhibition of phase II (% antinociception) ([1]; 300 mg/kg p.o., phase II): 87.78%
- effect on phase II of the formalin test ([1]; all doses used: 50, 100, 200, 300 mg/kg p.o.): significantly reduced phase II
- Oral administration ED30 [1]: 32.35 ± 7.85 mg/kg
- ED30 for the inhibition of phase II (experimental) [1]: 32.3578
- MPE, mechanical allodynia ([2]; 25 mg/kg p.o. daily for 7 days): 25.65%
- MPE, mechanical allodynia ([2]; 50 mg/kg p.o. daily for 7 days): 60.96%
- MPE, mechanical allodynia [2, 6]: 75.49%
- MPE, mechanical allodynia [2, 7]: 75.45%
- ED50 [2, 8]: 47.5 ± 14.1 mg/kg
- ED50 [2, 9]: 47.5 mg/kg
- antiallodynic effect ([2]; doses 25, 50, 100, 200 mg/kg p.o., repeated 7 days (p<0.05)): significant antiallodynic effect from doses of 50 mg/kg
- MPE, intensity of mechanical hypernociception ([3]; 25 mg/kg p.o. daily for 7 days): 31.79%
- MPE, intensity of mechanical hypernociception ([3]; 50 mg/kg p.o. daily for 7 days): 35.05%
- MPE, intensity of mechanical hypernociception [3, 6]: 42.42%
- MPE, intensity of mechanical hypernociception [3, 7]: 48.37%
- mechanical antihypernociceptive effect ([3]; 25, 50, 100 (p<0.01) and 200 mg/kg (p<0.001) p.o., similar to GBP): mechanical antihypernociceptive effect in a dose-dependent manner
- efficacy to reduce the intensity of mechanical hypernociception, 300 mg/kg versus 200 mg/kg ([3]; doses of 300 mg/kg compared with 200 mg/kg): less efficacy
- ED30, mechanical hypernociception [3]: 22.5725

SMILES: CN(C)CCC=C1c2ccccc2CCc2ccccc21 [Amitriptyline, amitriptyline]
- signs of sedation or catalepsy [4]: no signs of sedation or catalepsy
- percentage of inhibition of phase II (% antinociception) ([1]; 0.1 mg/kg p.o., phase II (15-45 min)): −11.38%
- percentage of inhibition of phase II (% antinociception) ([1]; 1 mg/kg p.o., phase II): 57.35%
- percentage of inhibition of phase II (% antinociception) ([1]; 3 mg/kg p.o., phase II): 55.56%
- percentage of inhibition of phase II (% antinociception) ([1]; 10 mg/kg p.o., phase II): 62.24%
- inhibitory effect on phases of the formalin test ([1]; doses 0.1, 1, 3, 10 mg/kg p.o.): significant inhibitory effect was observed exclusively on phase II
- licking/biting response in both phases ([1]; doses of 20, 25, 50 and 100 mg/kg): a significant dose-dependent inhibitory response pattern was not observed
- Oral administration ED30 [1]: 0.66 ± 0.41 mg/kg
- ED30 for the inhibition of phase II (experimental) [1]: 0.6677
- MPE, mechanical allodynia [2, 10]: 0.96%
- MPE, mechanical allodynia [2, 11]: 1.31%
- MPE, mechanical allodynia ([2]; 3 mg/kg p.o. daily for 7 days): 58.75%
- MPE, mechanical allodynia ([2]; 10 mg/kg p.o. daily for 7 days): 65.97%
- ED50 [2, 8]: 4.54 ± 2.28 mg/kg
- ED50 [2, 9]: 4.54 mg/kg
- withdrawal thresholds of the damaged paw to von Frey filaments stimulation ([2]; doses of 3 and 10 mg/kg p.o., repeated 7 days (p<0.05)): increased the withdrawal thresholds
- MPE, intensity of mechanical hypernociception [3, 10]: 2.55%
- MPE, intensity of mechanical hypernociception [3, 11]: 16.07%
- MPE, intensity of mechanical hypernociception ([3]; 3 mg/kg p.o. daily for 7 days): 35.43%
- MPE, intensity of mechanical hypernociception ([3]; 10 mg/kg p.o. daily for 7 days): 44.95%
- intensity of mechanical hypernociception ([3]; dose of 1.5 (p<0.01), 3 and 10 mg/kg (p<0.001) p.o., repeated 7 days): significantly reduced the intensity of mechanical hypernociception
- ED30, mechanical hypernociception [3]: 3.1032

SMILES: NCC1(CC(=O)O)CCCCC1 [GBP, gabapentin]
- MPE, mechanical allodynia ([2]; 50 mg/kg p.o. daily for 7 days): 60.66%
- Wallerian degeneration alterations in sciatic nerve (qualitative) [5]: show a decrease in these alterations
- MPE, intensity of mechanical hypernociception ([3]; 50 mg/kg p.o. daily for 7 days): 63.47%
